{"source": "patent US20200147058A1", "about": "“KRAS INHIBITOR FOR USE IN TREATING CANCER” (Friedrich-Alexander-Universitat Erlangen-Numberg, priority 2016, published 2020)", "type_in_all_cases": "cell-based, human", "key": {"Mel Im cells [1]": {"test_system": "Mel Im cells", "test": "FACS analysis of apoptosis (Annexin / propidium iodide)", "excerpt": "(§1) FIGS. 4A through 4H depict that small Molecule KRAS Inhibition Reduces Proliferation and Induces Apoptosis in Melanoma. FIGS. 4A and 4B show proliferation (slope of cell index) of Mel Juso (FIG. 4A) and Mel Im (FIG. 4B) cells treated with DMSO and different concentrations of the KRAS small molecule inhibitor Deltarasin (DR). The cell index as dimensionless parameter for cell proliferative ability was used to determine the half maximal inhibitory concentration (IC50, small graphs) of DR. […] FIG. 4D illustrates exemplary images of different melanoma cell lines (Mel Im, Mel Juso and Mel Ei) treated with 5 μM DR or 5 μM DMSO, respectively, for 24 hours. FIGS. 4E and 4F show images of fibroblast cell lines derived from two different donors (F1, F2) and melanocytes (NHEM) treated DR (20 μM, 48 hours) or DMSO (FIG. 4E), and lactate dehydrogenase (LDH) quantification (FIG. 4F) in cell supernatants (optic density, OD) of NHEM after treatment with low dose DMSO, DR (5 μM), and DR (10 μM), respectively.\n(§2) FIGS. 5A through 5D show time-dependent measurement of colony diameters (exemplary data in top panels) in three-dimensional, anchorage-independent “colony-forming” assays (FIGS. 5A and 5B: Mel Im, FIGS. 5C and 5D: Mel Juso). Exemplary Images (middle) and corresponding quantification of colony diameters (bottom panels, summarized data of n=3 experiments at day 19 after seeding) are also depicted. Treatments were performed in four different groups (10 μM DMSO, 5 μM Deltarasin=DR, M PLX-4032=PLX (vemurafenib), or combination of 10 μM PLX+[…]). Effects on i) colony formation (FIGS. 5A and 5C, treatment at day 1) and ii) proliferation of pre-formed colonies (FIGS. 5B and 5D, treatment at day 7 and 13) were analyzed. […] FIG. 5F show images of PLX-primary resistant Mel Juso cells treated with DMSO, DR (5 μM), high dose PLX (20 μM) and a combination of 5 μM DR+10 μM PLX for 24 hours. […] Cells were treated for 5 hours with DMSO, 5 μM Deltarasin (DR), 10 μM PLX, or a combination of 10 μM PLX and 5 μM DR. According to exemplary images for Annexin and propidium iodide (PI) staining are depicted for Mel Im. (FIG. 5H) Mel Im and Mel Juso were transfected with control si-RNA (si-CTR) or with si-KRAS (si-KR). Two subgroups (blue and red) were additionally treated with 10 μM PLX (Vemurafenib) for 24 hours, with subsequent flow cytometric quantification of tumor cell apoptosis according to FIG. 5G. Exemplary images for Annexin and propidium iodide (PI) staining are depicted for Mel Im."}, "Mel Juso cells [2]": {"test_system": "Mel Juso cells", "test": "FACS analysis of apoptosis (Annexin / propidium iodide)", "excerpt": "as §1, §2"}, "Htz19 melanoma cells": {"test_system": "Htz19 melanoma cells", "test": "FACS analysis of apoptosis", "settings": "PLX 24 hours, alone or combined with RNAi-mediated KRAS knockdown"}, "Mel Im cells [3]": {"test_system": "Mel Im cells", "test": "long-term treatment, emergence of surviving tumor cells and drug resistance", "settings": "21 days, PLX increasing doses up to 20 μM, or 10 μM PLX + 5 μM DR", "excerpt": "as §1\nFIGS. 6A through 6H depict that KRASi Prevents Emergence of Resistance and KRAS Expression is Regulated Dynamically in Acquired Resistance to BRAFi. […] Asterisks indicate significant differences (p<0.05) as compared to according control (0 μM PLX). […] Densitometric values (DM) are also shown, representing relative quantifications. […]"}, "Mel Juso cells [4]": {"test_system": "Mel Juso cells", "test": "three-dimensional, anchorage-independent colony-forming assay", "settings": "Mel Juso (BRAFi primary resistant); DR 5 μM, PLX 10 μM, alone or combined", "excerpt": "FIGS. 5A through 5D show time-dependent measurement of colony diameters (exemplary data in top panels) in three-dimensional, anchorage-independent “colony-forming” assays (FIGS. 5A and 5B: Mel Im, FIGS. 5C and 5D: Mel Juso). Exemplary Images (middle) and corresponding quantification of colony diameters (bottom panels, summarized data of n=3 experiments at day 19 after seeding) are also depicted. […] Effects on i) colony formation (FIGS. 5A and 5C, treatment at day 1) and ii) proliferation of pre-formed colonies (FIGS. 5B and 5D, treatment at day 7 and 13) were analyzed. […] Cells were treated for 5 hours with DMSO, 5 μM Deltarasin (DR), 10 μM PLX, or a combination of 10 μM PLX and 5 μM DR. […] (FIG. 5H) Mel Im and Mel Juso were transfected with control si-RNA (si-CTR) or with si-KRAS (si-KR). Two subgroups (blue and red) were additionally treated with 10 μM PLX (Vemurafenib) for 24 hours, with subsequent flow cytometric quantification of tumor cell apoptosis according to FIG. 5G."}, "Mel Juso cells [5]": {"test_system": "Mel Juso cells", "test": "ERK-activation in BRAFi primary resistant cells", "settings": "PLX"}, "SkMel28-wt": {"test_system": "SkMel28-wt", "test": "cell proliferation (slope of cell index)", "settings": "10 μM PLX vs DMSO", "description": "(§3) FIGS. 6A through 6H depict that KRASi Prevents Emergence of Resistance and KRAS Expression is Regulated Dynamically in Acquired Resistance to BRAFi. […] Asterisks indicate significant differences (p<0.05) as compared to according control (0 μM PLX). FIGS. 6E and 6F are exemplary Western blot images (FIG. 6E) depicting immunostaining of AKT, pAKT, ERK, pERK, and KRAS. Densitometric values (DM) are also shown, representing relative quantifications. Resistant cell lines 451Lu-R and SkMel28-R were treated with 0, 5, or 10 μM PLX for 8 hours, and according summarized quantification of KRAS protein expression (n=3, FIG. 6F)."}, "451Lu-wt": {"test_system": "451Lu-wt", "test": "cell proliferation (slope of cell index)", "settings": "10 μM PLX vs DMSO"}, "[6]": {"test_system": "resistant cell clones (SkMel28-R, 451Lu-R)", "test": "real-time cell proliferation of BRAFi-resistant melanoma cells", "settings": "both resistant cell clones; 10 μM PLX vs DMSO", "description": "as §3\nFIGS. 7A through 7I present KRAS Inhibition Re-sensitizes BRAF Inhibitor Resistant Cells for Inhibition of Proliferation and Induction of Apoptosis. […] show real-time cell proliferation (exemplary proliferation curve depicted in FIG. 6A, summarized slopes of proliferation curves depicted in FIG. 6B) of PLX-resistant cells treated with si-KRAS (KR) or control si-RNA (CTR), respectively, in combination with 5 or 10 μM PLX. FIGS. 7C and 7D show real-time cell proliferation (exemplary proliferation curve depicted in […], summarized slopes of proliferation curves depicted in FIG. 7D) of PLX-resistant cells treated with Deltarasin (DR) or DMSO, respectively, in combination with 5 or 10 μM PLX, according to FIGS. 7A and 7B. […]"}, "[7]": {"test_system": "KRAS mRNA in SkMel28-R and 451Lu-R cells", "test": "qRT-PCR of KRAS mRNA expression after PLX treatment", "settings": "resistant and some non-resistant melanoma cell clones; 24-hour and 48-hour PLX treatment", "description": "as §3"}, "[8]": {"test_system": "resistant cell lines 451Lu-R and SkMel28-R", "test": "Western blot of AKT, pAKT, ERK, pERK and KRAS", "description": "as §3\nAfter 48 hours of transfection with either control si-RNA (CTR) or si-KRAS (KR), cells were treated with different concentrations of PLX (0-10 μM). Data are represented as mean±SD in FIGS. 6A-6G and as mean±SEM in FIG. 6H. Ns: non-significant. *: p<0.05."}, "[9]": {"settings": "10 μM PLX 24 hours, alone (si-CTR) or combined with RNAi-mediated KRAS knockdown"}, "[10]": {"settings": "5 hours, 5 μM DR, 10 μM PLX or combination"}}}
{"molecule": "CCCS(=O)(=O)Nc1ccc(F)c(C(=O)c2c[nH]c3ncc(-c4ccc(Cl)cc4)cc23)c1F", "note": "[PLX]", "values": [{"measurement": "apoptosis (FACS)", "setting": "Mel Im cells [1]; [9]", "result": "slightly enhanced apoptosis"}, {"measurement": "apoptosis (FACS), short treatment", "setting": "Mel Im cells [1]; [10]", "result": "insufficient to induce apoptosis"}, {"measurement": "apoptosis (FACS)", "setting": "Mel Juso cells [2]; [9]", "result": "did not cause apoptosis"}, {"measurement": "apoptosis (FACS), short treatment", "setting": "Mel Juso cells [2]; [10]", "result": "insufficient to induce apoptosis"}, {"measurement": "apoptosis (FACS)", "setting": "Htz19 melanoma cells", "result": "slightly enhanced apoptosis"}, {"measurement": "emergence of surviving tumor cells (acquired resistance)", "setting": "Mel Im cells [3]", "result": "survival of a moderate proportion of tumor cells"}, {"measurement": "three-dimensional colony formation and colony proliferation", "setting": "Mel Juso cells [4]", "result": "enhanced"}, {"measurement": "ERK-activation", "setting": "Mel Juso cells [5]", "result": "enhanced"}, {"measurement": "cell proliferation", "setting": "SkMel28-wt", "result": "inhibited proliferation"}, {"measurement": "cell proliferation", "setting": "451Lu-wt", "result": "inhibited proliferation"}, {"measurement": "cell proliferation", "setting": "[6]", "result": "enhanced"}, {"measurement": "KRAS mRNA expression (qRT-PCR)", "setting": "[7]", "result": "dose-dependent slight dynamic alteration"}, {"measurement": "ERK activation (pERK)", "setting": "[8]; PLX 0, 5 or 10 μM", "result": "increased ERK activation"}, {"measurement": "activation of AKT (pAKT/AKT)", "setting": "[8]; PLX doses", "result": "dose-dependently increased"}, {"measurement": "KRAS protein expression (Western blot)", "setting": "[8]; eight hours, 0, 5 or 10 μM PLX", "result": "dose-dependently enhanced"}]}
